Assay [1] addresses T1, HsORC motor module (HsORC1/4/5) (Homo sapiens, UniProt O43913+O43929+Q13415).
T1 construct: gene ORC1; ORC1 471-861 (BAH domain removed), ORC4 full-length 1-436, ORC5 1-284 (WHD removed); Sf9 insect cells, two-Strep-SumoStar tag on ORC1 cleaved; heterotrimer
T1 sequence (Q13415 471-861): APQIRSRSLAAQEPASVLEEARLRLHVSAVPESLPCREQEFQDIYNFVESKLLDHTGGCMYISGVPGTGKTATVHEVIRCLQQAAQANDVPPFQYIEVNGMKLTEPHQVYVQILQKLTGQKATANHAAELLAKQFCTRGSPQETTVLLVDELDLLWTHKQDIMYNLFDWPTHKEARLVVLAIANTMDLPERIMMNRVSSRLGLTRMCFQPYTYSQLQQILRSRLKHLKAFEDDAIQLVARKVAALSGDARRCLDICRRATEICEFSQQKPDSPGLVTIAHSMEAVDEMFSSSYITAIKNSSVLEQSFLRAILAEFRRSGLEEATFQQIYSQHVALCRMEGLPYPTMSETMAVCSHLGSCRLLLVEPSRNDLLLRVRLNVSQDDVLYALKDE
T1 sequence (O43929 1-436): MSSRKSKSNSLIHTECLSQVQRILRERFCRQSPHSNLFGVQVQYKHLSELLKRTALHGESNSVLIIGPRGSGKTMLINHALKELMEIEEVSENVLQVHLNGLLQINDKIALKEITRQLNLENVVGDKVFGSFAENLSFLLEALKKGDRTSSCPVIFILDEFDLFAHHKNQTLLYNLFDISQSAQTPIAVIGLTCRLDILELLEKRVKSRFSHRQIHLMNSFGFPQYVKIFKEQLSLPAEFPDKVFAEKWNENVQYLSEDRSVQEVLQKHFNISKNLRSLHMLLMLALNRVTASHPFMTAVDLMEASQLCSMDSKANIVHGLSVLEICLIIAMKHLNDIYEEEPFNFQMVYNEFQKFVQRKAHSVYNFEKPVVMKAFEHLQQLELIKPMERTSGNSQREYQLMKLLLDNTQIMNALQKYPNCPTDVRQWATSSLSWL
T1 sequence (O43913 1-284): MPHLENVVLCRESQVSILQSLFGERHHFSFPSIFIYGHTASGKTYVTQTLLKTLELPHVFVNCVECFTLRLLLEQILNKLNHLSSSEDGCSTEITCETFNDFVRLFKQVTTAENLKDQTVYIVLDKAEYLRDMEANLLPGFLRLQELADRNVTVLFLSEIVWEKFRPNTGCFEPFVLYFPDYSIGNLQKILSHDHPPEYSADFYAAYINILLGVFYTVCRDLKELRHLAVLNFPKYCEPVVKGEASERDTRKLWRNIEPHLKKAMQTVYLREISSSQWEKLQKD
The experiment in a line: X-ray crystal structure, […] A. The class given is binding. To be noted: unhydrolysed ATP at the ORC1/ORC4 and ORC4/ORC5 interfaces and on ORC5; Mg2+.

Assay [2] deals with T2, HsORC motor module (HsORC1/4/5) (Homo sapiens, UniProt O43913+O43929+Q13415, O43929:Y174C).
T2 construct: gene ORC1; ORC1 471-861 (BAH domain removed), ORC4 full-length 1-436, ORC5 1-284 (WHD removed); Sf9 insect cells, two-Strep-SumoStar tag on ORC1 cleaved; heterotrimer
T2 sequence (Q13415 471-861): T1 sequence (Q13415 471-861)
T2 sequence (O43929 1-436 Y174C): T1 sequence (O43929 1-436) with Y174C
T2 sequence (O43913 1-284): T1 sequence (O43913 1-284)
As to the kind of experiment: radiolabelled ATPase assay, TLC, Michaelis-Menten fit. The class given is biochemical. As to conditions: 50 mM Hepes-NaOH pH 7.5, 200 mM KCl, 5 mM MgCl2, 5 mM DTT, 37 C, 12.5-200 uM ATP, 10 uM complex; [gamma-32P]ATP tracer; ORC1/4 interface; Meier-Gorlin Syndrome mutant.

Assay [3] deals with T3, HsORC motor module (HsORC1/4/5) (Homo sapiens, UniProt O43913+O43929+Q13415, Q13415:D620A).
T3 construct: gene ORC1; ORC1 471-861 (BAH domain removed), ORC4 full-length 1-436, ORC5 1-284 (WHD removed); Sf9 insect cells, two-Strep-SumoStar tag on ORC1 cleaved; heterotrimer
T3 sequence (Q13415 471-861 D620A): T1 sequence (Q13415 471-861) with D150A
T3 sequence (O43929 1-436): T1 sequence (O43929 1-436)
T3 sequence (O43913 1-284): T1 sequence (O43913 1-284)
As to the kind of experiment: radiolabelled ATPase assay, TLC. The class given is biochemical. To be noted: 50 mM Hepes-NaOH pH 7.5, 200 mM KCl, 5 mM MgCl2, 5 mM DTT, 37 C, 12.5-200 uM ATP, 10 uM complex; [gamma-32P]ATP tracer; ORC1/4 interface; Walker-B mutant.

For assay [4], the target named is T4, HsORC1-5 (Homo sapiens, UniProt O43913+O43929+Q13415, Q13415:R720Q).
T4 construct: gene ORC1; heteropentamer without ORC6; Sf9 insect cells; with Origin recognition complex subunit 5; Origin recognition complex subunit 2; Origin recognition complex subunit 3
T4 sequence (Q13415 471-861 R720Q, one chain of several): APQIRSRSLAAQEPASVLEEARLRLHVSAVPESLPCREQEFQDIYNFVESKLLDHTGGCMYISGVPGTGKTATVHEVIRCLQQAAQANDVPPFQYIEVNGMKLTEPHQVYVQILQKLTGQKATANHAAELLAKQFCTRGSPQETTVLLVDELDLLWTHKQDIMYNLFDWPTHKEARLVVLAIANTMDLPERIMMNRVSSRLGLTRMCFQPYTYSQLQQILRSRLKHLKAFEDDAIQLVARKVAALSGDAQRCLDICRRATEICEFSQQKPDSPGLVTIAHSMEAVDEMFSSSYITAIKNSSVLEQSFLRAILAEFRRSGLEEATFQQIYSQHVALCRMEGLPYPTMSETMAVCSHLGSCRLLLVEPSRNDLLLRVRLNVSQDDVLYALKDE
T4 sequence (O43913 whole entry, one chain of several): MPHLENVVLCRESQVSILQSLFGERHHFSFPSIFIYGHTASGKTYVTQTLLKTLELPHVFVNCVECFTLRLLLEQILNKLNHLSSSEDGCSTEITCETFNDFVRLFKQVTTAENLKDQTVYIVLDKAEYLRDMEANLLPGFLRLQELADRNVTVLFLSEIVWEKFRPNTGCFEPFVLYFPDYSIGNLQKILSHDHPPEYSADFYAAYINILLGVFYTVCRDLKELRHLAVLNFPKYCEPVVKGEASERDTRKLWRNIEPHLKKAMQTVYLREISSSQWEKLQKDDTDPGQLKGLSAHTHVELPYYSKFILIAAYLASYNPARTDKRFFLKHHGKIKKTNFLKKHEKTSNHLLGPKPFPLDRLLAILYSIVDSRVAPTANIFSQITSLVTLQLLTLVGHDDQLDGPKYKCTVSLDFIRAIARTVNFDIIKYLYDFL
T4 sequence (Q13416 whole entry partner, one chain of several): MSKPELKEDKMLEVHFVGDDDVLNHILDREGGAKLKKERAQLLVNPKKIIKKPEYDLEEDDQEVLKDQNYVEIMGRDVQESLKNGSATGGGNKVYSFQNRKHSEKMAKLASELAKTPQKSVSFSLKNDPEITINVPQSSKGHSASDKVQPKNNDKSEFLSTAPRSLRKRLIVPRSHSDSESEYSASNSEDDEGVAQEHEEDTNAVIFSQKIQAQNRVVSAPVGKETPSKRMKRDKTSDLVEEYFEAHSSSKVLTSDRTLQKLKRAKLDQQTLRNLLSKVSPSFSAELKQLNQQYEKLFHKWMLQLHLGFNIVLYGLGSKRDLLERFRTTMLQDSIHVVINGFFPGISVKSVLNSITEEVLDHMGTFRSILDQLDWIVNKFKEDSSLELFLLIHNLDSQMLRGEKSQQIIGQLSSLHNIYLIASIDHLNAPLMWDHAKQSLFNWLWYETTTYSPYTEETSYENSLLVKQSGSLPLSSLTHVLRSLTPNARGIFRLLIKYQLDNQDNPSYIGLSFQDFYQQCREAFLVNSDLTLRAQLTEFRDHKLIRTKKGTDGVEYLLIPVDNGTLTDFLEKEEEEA
T4 sequence (Q9UBD5 whole entry partner, one chain of several): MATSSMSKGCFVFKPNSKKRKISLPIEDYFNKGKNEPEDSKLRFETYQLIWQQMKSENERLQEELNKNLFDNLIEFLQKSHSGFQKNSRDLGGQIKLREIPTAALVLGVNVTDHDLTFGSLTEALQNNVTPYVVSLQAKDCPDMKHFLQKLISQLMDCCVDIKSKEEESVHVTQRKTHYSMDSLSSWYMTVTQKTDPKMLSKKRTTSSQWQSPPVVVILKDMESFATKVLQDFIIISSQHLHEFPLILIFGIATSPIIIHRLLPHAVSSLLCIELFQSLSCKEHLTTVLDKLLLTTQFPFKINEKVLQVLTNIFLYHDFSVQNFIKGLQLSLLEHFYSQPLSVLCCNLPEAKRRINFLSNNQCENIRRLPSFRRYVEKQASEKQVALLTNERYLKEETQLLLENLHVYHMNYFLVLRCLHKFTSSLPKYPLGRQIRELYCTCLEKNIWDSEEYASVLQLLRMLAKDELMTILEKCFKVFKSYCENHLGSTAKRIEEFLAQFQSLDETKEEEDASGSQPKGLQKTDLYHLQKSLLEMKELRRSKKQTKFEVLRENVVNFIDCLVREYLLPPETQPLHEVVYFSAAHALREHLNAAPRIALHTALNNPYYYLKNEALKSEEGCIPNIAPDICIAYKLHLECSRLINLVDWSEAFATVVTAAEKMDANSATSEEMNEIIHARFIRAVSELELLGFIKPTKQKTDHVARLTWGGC
As to the kind of experiment: radiolabelled ATPase assay, TLC. The class given is biochemical. To be noted: 50 mM Hepes-NaOH pH 7.5, 200 mM KCl, 5 mM MgCl2, 5 mM DTT, 37 C, 12.5-200 uM ATP, 10 uM complex; [gamma-32P]ATP tracer; ORC1/4 interface; Meier-Gorlin Syndrome mutant.

Assay [5] concerns the target T5, HsORC motor module (HsORC1/4/5) (Homo sapiens, UniProt O43913+O43929+Q13415, O43929:D159A/Q13415:D620A).
T5 construct: gene ORC1; ORC1 471-861 (BAH domain removed), ORC4 full-length 1-436, ORC5 1-284 (WHD removed); Sf9 insect cells, two-Strep-SumoStar tag on ORC1 cleaved; heterotrimer
T5 sequence (Q13415 471-861 D620A): T1 sequence (Q13415 471-861) with D150A
T5 sequence (O43929 1-436 D159A): T1 sequence (O43929 1-436) with D159A
T5 sequence (O43913 1-284): T1 sequence (O43913 1-284)
As to the kind of experiment: radiolabelled ATPase assay, TLC. To be noted: 50 mM Hepes-NaOH pH 7.5, 200 mM KCl, 5 mM MgCl2, 5 mM DTT, 37 C, 12.5-200 uM ATP, 10 uM complex; [gamma-32P]ATP tracer; ORC1/4 interface; double Walker-B mutant. It counts as biochemical.

Assay [6] concerns the target T6, HsORC motor module (HsORC1/4/5) (Homo sapiens, UniProt O43913+O43929+Q13415, Q13415:R720Q).
T6 construct: gene ORC1; ORC1 471-861 (BAH domain removed), ORC4 full-length 1-436, ORC5 1-284 (WHD removed); Sf9 insect cells, two-Strep-SumoStar tag on ORC1 cleaved; heterotrimer
T6 sequence (Q13415 471-861 R720Q): T1 sequence (Q13415 471-861) with R250Q
T6 sequence (O43929 1-436): T1 sequence (O43929 1-436)
T6 sequence (O43913 1-284): T1 sequence (O43913 1-284)
As to the kind of experiment: radiolabelled ATPase assay, TLC. It counts as biochemical. To be noted: 50 mM Hepes-NaOH pH 7.5, 200 mM KCl, 5 mM MgCl2, 5 mM DTT, 37 C, 12.5-200 uM ATP, 10 uM complex; [gamma-32P]ATP tracer; ORC1/4 interface; Meier-Gorlin Syndrome mutant (sensor-2 trigger).

The structures appear in SMILES notation. Positions count from the first letter of the chain named.

As for `Nc1ncnc2c1ncn2[C@@H]1O[C@H](COP(=O)(O)OP(=O)(O)OP(=O)(O)O)[C@@H](O)[C@H]1O` [ATP], the “X-ray crystal structure, 3.4 A” value in assay [1] is “The HsORC motor module crystallized with ATP, and the nucleotides can be clearly seen”. In addition, the ATPase activity entry in assay [2] is on record as “renders the motor module hyperactive for ATPase activity”. The “radiolabelled ATPase assay, TLC” value is “Disrupting the ORC1 Walker-B motif (ORC1 D620A) effectively abolished ATPase activity” in assay [3]; “the ORC1 MGS mutation R720Q all show very little activity” in assay [4]; “A double mutant of the Walker-B motif of both ORC1 and ORC4 also abolished activity” in assay [5]; “ORC1-R720Q abolished ATPase activity of the motor module” in assay [6].

Values taken from publication PMC5291709, “Structure of the active form of human origin recognition complex and its ATPase motor module” (eLife, 2017).
